According to ChEMBL document CHEMBL1614632, “Trend analysis of a database of intravenous pharmacokinetic parameters in humans for 670 drug compounds” (Drug Metab Dispos, 2008):
Numbered stars: 1 amine (or outer) side, 2 acyl side, 3 side chain; on linkers, the order of the positions; unused ones are H or OH. Bridge positions count the residues as written; N and C are the ends. Square brackets hold non-standard residues; d marks the D form. Peptide text beside a SMILES is read from it. * marks the point of attachment. X2 = O=C1C[C@@H](C(=O)[*:2])N([*:1])C[C@H]1CS[C@@H]1CN2CCC1CC2; NMePhe(4-NMe2) = CN[C@@H](Cc1ccc(N(C)C)cc1)C(=O)O; Picolinoyl(3-OH) = O=C(c1ncccc1O)*; Phg = N[C@H](C(=O)O)c1ccccc1; dAbu = CC[C@@H](N)C(=O)O

Legend:
clinical [1] = details: human, in vivo, iv, CL
clinical [2] = details: human, in vivo, iv
clinical [3] = details: human, in vivo, iv; remark: listed apart in the source
clinical [4] = details: human, in vivo, iv, Vdss
clinical [5] = details: human, in vivo, iv, t1/2

SMILES	clearance (clinical [1]) [mL/min/kg]	fraction unbound (clinical [2])	MRT (clinical [3]) [h]	Vd (clinical [4]) [L/kg]	half-life (clinical [5]) [min]
CCCC(C)C1(CC)C(=O)NC(=O)NC1=O (stereo not given) [PENTOBARBITAL]	0.47	0.39	32	0.91	1320
OCCN1CCN(CCCN2c3ccccc3Sc3ccc(Cl)cc32)CC1 [PERPHENAZINE]	27	0.07	11	18	564
CC(Oc1ccccc1)C(=O)N[C@@H]1C(=O)N2[C@@H]1SC(C)(C)[C@@H]2C(=O)O (stereo not given in full) [PHENETHICILLIN]	4.2	0.25	1.2	0.3	54.6
CC(=O)O[C@H]1C[C@]2(C)CC[C@H]3[C@@H]4C[C@H](N5CC[N+](C)(C)CC5)[C@H](OC(C)=O)[C@@]4(C)CC[C@@H]3[C@@]2(C)C[C@@H]1N1CC[N+](C)(C)CC1.[Br-].[Br-] [PIPERCURONIUM]	3	0.98	1.9	0.35	114
NS(=O)(=O)c1cc(C(=O)O)cc(N2CCCC2)c1Oc1ccccc1 [PIRETANIDE]	3.1	0.058	0.91	0.17	78
CCCNC(C)C(=O)Nc1ccccc1C (stereo not given) [PRILOCAINE]	29	0.72	2.2	3.7	108
CN(C)CCCN1c2ccccc2Sc2ccccc21 [PROMAZINE]	14	0.11	9.6	8.1	474
CC(C)c1cccc(C(C)C)c1O [PROPOFOL]	36	0.016	2.2	4.7	192
CCC(=O)O[C@](Cc1ccccc1)(c1ccccc1)[C@H](C)CN(C)C [PROPOXYPHENE]	15	0.24	13.3	12	1080
CCCc1cc(=O)[nH]c(=S)[nH]1 [PROPYLTHIOURACIL]	3.1	0.18	1.8	0.34	78
CCc1nc(N)nc(N)c1-c1ccc(Cl)cc1 [PYRIMETHAMINE]	0.052	0.095	140	0.43	8400
O=c1c(O)c(-c2ccc(O)c(O)c2)oc2cc(O)cc(O)c12 [QUERCETIN]	11	0.009	0.2	0.12	36
CC[C@H]1NC(=O)[C@@H](NC(=O)c2ncccc2O)[C@@H](C)OC(=O)[C@H](c2ccccc2)NC(=O)[C@@H]2CC(=O)[C@H](CS[C@@H]3CN4CCC3CC4)CN2C(=O)[C@H](Cc2ccc(N(C)C)cc2)N(C)C(=O)[C@@H]2CCCN2C1=O [QUINUPRISTIN] ({Picolinoyl(3-OH)}-T[dAbu]P[NMePhe(4-NMe2)][X2][Phg]; ester 1-C)	16	0.34	0.7	0.67	52.2
CC(NCCc1ccc(O)cc1)C(O)c1ccc(O)cc1 (stereo not given) [RITODRINE]	31	0.64	2.4	4.4	156
CCN(C)C(=O)Oc1cccc([C@H](C)N(C)C)c1 [RIVASTIGMINE]	12	0.6	1.9	1.3	84
C=CC[N+]1([C@H]2C[C@H]3[C@@H]4CC[C@H]5C[C@H](O)[C@@H](N6CCOCC6)C[C@]5(C)[C@H]4CC[C@]3(C)[C@H]2OC(C)=O)CCCC1 [ROCURONIUM]	3.7	0.54	0.95	0.21	96
CN(C)[C@@H]1C(O)=C(C(=O)NCN2CCCC2)C(=O)[C@@]2(O)C(O)=C3C(=O)c4c(O)cccc4[C@@](C)(O)[C@H]3C[C@@H]12 [ROLITETRACYCLINE]	0.97	0.5	9.3	0.54	528
CCCN1CCCC[C@H]1C(=O)Nc1c(C)cccc1C [ROPIVACAINE]	5.5	0.06	2.3	0.75	132
CN[C@@H]1[C@@H](O)[C@@H](O[C@@H]2[C@@H](O)[C@H](O[C@H]3OC(CN)=CC[C@H]3N)[C@@H](N)C[C@H]2N)OC[C@]1(C)O [SISOMICIN]	1	0.15	3.2	0.19	144
Cc1cn([C@H]2C=C[C@@H](CO)O2)c(=O)[nH]c1=O [STAVUDINE]	8.2	1	1.4	0.67	84
[H]/N=C(/N)N[C@H]1[C@H](O)[C@@H](O)[C@H](O[C@@H]2O[C@@H](C)[C@](O)(C=O)[C@H]2O[C@@H]2O[C@@H](CO)[C@H](O)[C@@H](O)[C@@H]2NC)[C@@H](N/C(N)=N\[H])[C@@H]1O [STREPTOMYCIN]	0.78	0.65	7.3	0.34	258
CC1(C)S[C@@H]2[C@H](NC(=O)C(c3ccccc3)S(=O)(=O)O)C(=O)N2[C@H]1C(=O)O (stereo not given in full) [SULBENICILLIN]	1.6	0.5	1.6	0.15	72
Cc1ccc(C(=O)Nc2ccc(S(=O)(=O)O)c3cc(S(=O)(=O)O)cc(S(=O)(=O)O)c23)cc1NC(=O)c1cccc(NC(=O)Nc2cccc(C(=O)Nc3cc(C(=O)Nc4ccc(S(=O)(=O)O)c5cc(S(=O)(=O)O)cc(S(=O)(=O)O)c45)ccc3C)c2)c1 [SURAMIN]	0.0057	0.001	1400	0.54	72000
Nc1c2c(nc3ccccc13)CCCC2 [TACRINE]	56	0.25	3.3	11	198
CCCCC/C=C\CCC(=O)N[C@H]1[C@H](Oc2c3cc4cc2Oc2ccc(cc2Cl)[C@@H](O[C@@H]2O[C@H](CO)[C@@H](O)[C@H](O)[C@H]2NC(C)=O)[C@@H]2NC(=O)[C@H](NC(=O)[C@@H]4NC(=O)[C@H]4NC(=O)[C@@H](Cc5ccc(c(Cl)c5)O3)NC(=O)[C@H](N)c3ccc(O)c(c3)Oc3cc(O)cc4c3)c3ccc(O)c(c3)-c3c(O[C@H]4O[C@H](CO)[C@@H](O)[C@H](O)[C@@H]4O)cc(O)cc3[C@@H](C(=O)O)NC2=O)O[C@H](CO)[C@@H](O)[C@@H]1O [TEICOPLANIN A2-1]	0.2	0.11	140	1.5	9000
CC[C@H]1OC(=O)[C@H](C)C(=O)[C@H](C)[C@@H](O[C@@H]2O[C@H](C)C[C@H](N(C)C)[C@H]2O)[C@](C)(OC)C[C@@H](C)C(=O)[C@H](C)[C@H]2N(CCCCn3cnc(-c4cccnc4)c3)C(=O)O[C@]12C [TELITHROMYCIN]	14	0.41	3.6	3	720
